System: N2a cells
Assay: MTT assay, cytotoxicity to N2a cells
Format: cell-based
Settings: for cell death: 0.5 nM; for IC50: 72 hours, read-out: half-inhibitory concentration (IC50) on cell viability
Protocol: This experiment mainly used the MTT assay to detect the toxicity of Aβ aggregates to neurons. The specific procedure was as follows: N2a cells were cultured in DMEM medium containing 10% FBS and 1% penicillin/streptomycin. The cells in the culture dish were digested with trypsin, centrifuged, and resuspended in the medium, and then inoculated in a 96-well plate, with about 5,000 cells/100 µL medium per well. After 12 hours, the cells were treated with a series of concentration gradients of sApo*3F and sAβos, and the same volume of solvent was added to the cells as a control. After 72 hours, 25 µL 5 mg/mL MTT was added to each well. After further culture at 37 °C for 3 hours, the medium was aspirated and 150 µL DMSO was added. The absorbance at 570 nm and 630 nm was measured using an MD-M5 microplate reader. The average value of six replicate wells was used for each sample and control, and each experiment was repeated three times. Cell viability was calculated by dividing the absorbance (background corrected) of the sample well with the absorbance (background corrected) of the well added with solvent.

Substance	cell death	difference between the two IC50s (sAβos before immunoprecipitation vs sApo*3F) (MTT)	IC50 (MTT)	cytotoxicity / neurotoxicity (200 nM)
sApo*3F: Aβo*3F prepared in vitro: Aβ monomers incubated 2 days, immunoprecipitated with the antibody 3F	66%	340 fold	~0.186 nM	–
sAβos: Aβos prepared in vitro, 10 µM Aβ, 2-day incubation, before immunoprecipitation	no substantial neurotoxic effect	–	~63.3 nM	70%

Reference: EP4571315A1, “DIAGNOSTIC USE OF HIGHLY TOXIC AMYLOID OLIGOMER” (Shen Zhen Wisdom Biopharm Co., Ltd., priority 2022, dated 2024)
